Counter-ions that a name gives are not always drawn.
How the values were obtained:
[1] = tested on: OVA-induced airway inflammation; experiment: Ovalbumin (OVA)-induced pulmonary inflammation in mice; format: in vivo, Balb/c mice; details: dexamethasone 1 mg/kg (qd)
Description: A compound of the present invention is tested in an OVA-induced pulmonary inflammation model in mice essentially as described in a method reported in the literature (Muriel Pichavant, Sho Goya, Eckard Hamelmann, Erwin W. Gelfand, and Dale T. Umetsu. Animal Models of Airway Sensitization. Current Protocols in Immunology. (1999) 15.18.1-15.18.13). Briefly, female Balb/c mice weighing from 18 to 20 g are sensitized by introperitoneal injection of 100 μL of saline containing 20 μg of OVA and 2 mg of aluminum hydroxide on day 1 and 14. On days 28, 29 and 30, mice are challenged once each by aerosolizing 1% ovalbumin (OVA) in phosphate buffered saline (PBS) for 20 minutes with Buxco Mass Dosing System. […] On day 32, animals from each group are anesthetized with 1% of pentobarbital sodium. The thoracic and abdominal cavities are opened and plasma is collected from centrifuged specimens. The trachea is then dissected and transected. Through the insertion of an 18-gauge catheter into the trachea, the lungs are lavaged with a total of 1.5 mL of sterile PBS and then placed into a specimen container. Cell-free BAL supernatants are obtained by centrifugation of BAL fluids. All serum and BAL supernatants are stored at −80° C. until use. Differential cell counts are performed on cytospin preparations of BAL cells for cell counting and cytokine determination. After the collection of BAL supernatants, the lungs of recipient mice are removed en bloc and fixed by an intratracheal instillation of 10% buffered formalin (in PBS). Three to six paraffin sections are obtained from the perihilar regions of recipient lungs, stained with hematoxylin and eosin, and examined under light microscopy for pathological study.

BxPC-3 cells = experiment: Cell viability test, combination study, BxPC-3; format: cell-based, human; details: for Ave. Inhibition rate: 72 h
Description: (§1) To evaluate biological activity of a compound in vitro, the cell viability test is applied, in which, IKKβ receptor plays an important role in cell survival and proliferation. Once the IKKβ pathway is blocked by inhibitors, a cell can go through apoptosis or death. The cell viability test provides information on cell survival after treatment with IKK inhibitors.
(§2) BxPC-3 cells (ATCC #CRL-1687; human pancreatic cancer cell line) are grown in Roswell Park Memorial Institute (RPMI) 1640 media (Gibco #A10491-01) supplemented with 10% fetal bovine serum (FBS) (Gibco #10099-141). Skov3-luc cells (ATCC, human ovarian carcinoma cell line) are grown in McCoy's 5a medium (Gibco#16600) supplemented with 10% FBS (Gibco#10099-141). For compound testing, BxPc-3 and Skov3-Luc cells are seeded at 2000 and 5000 cells/well respectively in 100 μL of corresponding media specified above for each cell line in 96-well plates 20 h prior to treatment. Cells are treated with a test compound at eight different concentrations in the presence of 0.5% DMSO for 72 h. Cell death in each well is determined by the addition of 20 μL of the One Solution Reagent (CELLTITER 96® AQueous One Solution Cell Proliferation Assay, Promega #G3580). After 2-4 h of incubation at 37° C., optical densities at 492 nm are measured with a microplate reader Inhibition of cell viability is determined by comparison to the control cells treated in the absence of a test compound.
(§3) For the combination study of the compound with other antitumor agents, BxPc-3 and Skov3-Luc cells are seeded at 2000 and 5000 cells/well respectively in 100 μL corresponding media specified above for each cell line in 96-well plates 20 h prior to the treatment. The cells are treated with the test compound at a number of concentrations for 30 minutes and then exposed to 5 ng/mL TNFα or 0.15-0.6 uM of VCR (vincristine sulfate) for an additional 72 hours. Cell death in each well is determined by the addition of 20 μL of the One Solution Reagent (CELLTITER 96® AQueous One Solution Cell Proliferation Assay, Promega #G3580). After 2-4 h of incubation at 37° C., optical densities at 492 nm are measured with a microplate reader Inhibition of cell viability is determined by comparison to the control cells treated in the absence of a test compound. For example, the results of the combination study with Example 1 are specially detailed in Table 2.

Skov3-luc cells = experiment: Cell viability test, combination study, Skov3-luc; format: cell-based; details: Homo sapiens, 72 h, Vincristine 0.25 μM alone, read-out: Ave. Inhibition rate
Description: as §1, §2
as §3, with “The cells are treated with the test compound at a number of concentrations for 30 minutes and then exposed to 5 ng/mL TNFα or 0.15-0.6 uM of VCR (vincristine sulfate) for an additional 72 hours.” left out, “For example, the results of the combination study with Example 1 are specially detailed in Table 2.” left out

[2] = tested on: SKOV-3x-FF-luci human ovarian cancer xenograft; experiment: Antitumor effect in SKOV-3x-FF-luci xenograft with vincristine (VCR); format: in vivo, Balb/c nu/nu mice; details: VCR alone at suboptimal dose, tail vein, once a week
Description: In order to expand the anti-tumor spectrum, more combination testing is explored. Based on in vitro synergistic effect of Example 1 and VCR, the compound is tested for its anti-tumor effects in SKOV-3x-FF-luci xenograft in the presence/absence of VCR. The SKOV-3x-FF-luci human ovarian cancer line (ATCC) is cultured in McCoy's 5a medium containing 10% FCS. Female Balb/c nu/nu mice (6-7 weeks old) are peritoneally injected with 0.2 mL of cell suspension containing 2×10^6 cells. Mice are divided into nine groups six days after cell implantation. The test compound is orally administered twice a day at 60 mg/kg for 20 consecutive days or at 90 mg/kg with a 2 days on and 5 days off dosing schedule. VCR at 1 or 0.3 mg/kg is administered via tail vein injection, once a week. In the combination group, VCR is given 1 h after the administration of the test compound. Mice from the control group are administered with the oral vehicle (10% Acacia at pH2.1) and intraperitoneally injected with saline. At the end of the treatment, all mice are euthanized with CO2 and tumors in the peritoneal cavity, diaphragmatic muscle, mesenterium, liver, spleen, and ovaries are harvested with surgery scissors and weighted. […] In the combination group, tumor growth is inhibited by 76% and 74%. Compared with monotherapy, statistical significance is found between combination and monotherapy.

## C[C@@H]1C[C@H]2[C@@H]3CCC4=CC(=O)C=C[C@]4(C)[C@@]3(F)[C@@H](O)C[C@]2(C)[C@@]1(O)C(=O)CO [Dexamethasone, reference compound]
[1]
  decrease of IL-13 in BALF: 77%

## TNFα
BxPC-3 cells; TNFα 5 ng/mL alone
  Ave. Inhibition rate: 5.73%

## CC[C@]1(O)C[C@H]2CN(CCc3c([nH]c4ccccc34)[C@@](C(=O)OC)(c3cc4c(cc3OC)N(C=O)[C@H]3[C@@](O)(C(=O)OC)[C@H](OC(C)=O)[C@]5(CC)C=CCN6CC[C@]43[C@@H]65)C2)C1 [Vincristine, vincristine sulfate, reference compound]
Skov3-luc cells
  inhibition at 0.25 µM: 25%
[2]
  tumor growth inhibition: 38%
BxPC-3 cells; Homo sapiens, BXPC-3, 72 h, Vincristine 0.15 μM alone, read-out: Ave. Inhibition rate
  inhibition at 0.15 µM: 5.73%
BxPC-3 cells; Vincristine 0.15 μM alone
  Ave. Inhibition rate: 9.48%

From patent US8501166B2, “Pyrimidinyl indole compounds” (Hutchison Medipharma Limited, priority 2010, dated 2013)
